# Assay results from patent US7521589B2, “Developmental animal model of temporal lobe epilepsy” (University of Prince Edward Island, priority 2003, dated 2009).
# How the values were obtained:
# Assay type in all cases: in vivo, rat
# [1] = tested on: Sprague Dawley rats; assay: NIS-L syndrome in open field arena; conditions: male rats; for animals displaying NIS-L in open field arena: tested PND 270
# Description: To determine if the syndrome could be elicited by novel stimuli other than the MWM, all rats were tested in the Novel Water Maze (NWM) (Kant, G. J., Pharmacol. Biochem. Behav. [1993] 44:287-295) approximately 120 days after the MWM testing (i.e. PND 240).
# The open field apparatus consisted of a 1.5 m diameter circular arena sectioned into 32 grids (16 central grids: 9 cm×9 cm; 16 peripheral grids). The open field was chosen as another environment that provided novelty while at the same time being less physiologically challenging than the previously described two water maze tasks. All rats were given a single 10 min trial in the open field arena and scored for the presence or absence of NIS-L by an experimenter blind to treatment. All testing procedures were conducted according to the guidelines of the Canadian Council on Animal Care.
# [2] = tested on: Sprague Dawley rats; assay: Daily assessment of pups until weaning for overt toxicity and weight gain; conditions: 5 or 20 μg/kg s.c. daily PND 8-PND 14
# Description: Within 24 hr of birth, offspring of untimed-pregnant Sprague Dawley rats (Charles River Laboratories, St. Constant, PQ) were culled to 10 pups/litter (5 males and 5 females). From post-natal day (PND) 8-PND 14, pups were weighed and given a single daily injection (s.c.; 10 ml/kg) of either saline, or 5 or 20 μg/kg domoic acid (DOM). These doses are well below those normally required to induce toxicity in animals of this age (Doucette, T. A. et al., Neurotox. Teratol. [2003] 25:473-479, and Doucette, T. A., et al., Neurotox. Teratol. [2000] 22:863-869). Pups were assessed daily until weaning (on PND 22) for overt signs of toxicity, and all pre- and post-weaning testing was conducted with the experimenter blind to treatment. All procedures were conducted in accordance with the guidelines of the Canadian Council on Animal Care. […] Rats received no additional drug treatment after PND 14. On PND 120, animals were tested for spatial learning and memory in the Morris Water Maze (MWM) (8 trials/day over 6 consecutive days), using a standard reversal procedure (McNamara, R. K. and Skelton, R. W., Brain Res. Brain Res. Rev. [1993] 18:33-49). […]
# [3] = tested on: Sprague Dawley rats; assay: NIS-L syndrome during Novel Water Maze (NWM) testing; conditions: for animals exhibiting NIS-L syndrome in NWM: tested PND 240; for animals displaying NIS-L syndrome during NWM testing: separate cohort, tested at 15 months
# Description: To determine if the syndrome could be elicited by novel stimuli other than the MWM, all rats were tested in the Novel Water Maze (NWM) (Kant, G. J., Pharmacol. Biochem. […]
# The Novel Water Maze (NWM) (Kant, G. J., Pharmacol. Biochem. Behav. [1993] 44:287-295) was selected based on its provision of a novel environment within which to evaluate the novelty impact on the precipitation of NIS-L. Animals were tested for 6 consecutive swim trials of 60 sec duration and scored for the presence or absence of NIS-L behaviours, by an observer blind to treatment during the 120 sec inter-trial period.
# [4] = tested on: Sprague Dawley rats; assay: NIS-L syndrome during Morris Water Maze (MWM) testing
# Description: Within 24 hr of birth, offspring of untimed-pregnant Sprague Dawley rats (Charles River Laboratories, St. Constant, PQ) were culled to 10 pups/litter (5 males and 5 females). […] These doses are well below those normally required to induce toxicity in animals of this age (Doucette, T. A. et al., Neurotox. Teratol. [2003] 25:473-479, and Doucette, T. A., et al., Neurotox. Teratol. [2000] 22:863-869). Pups were assessed daily until weaning (on PND 22) for overt signs of toxicity, and all pre- and post-weaning testing was conducted with the experimenter blind to treatment. All procedures were conducted in accordance with the guidelines of the Canadian Council on Animal Care. […] Rats received no additional drug treatment after PND 14. On PND 120, animals were tested for spatial learning and memory in the Morris Water Maze (MWM) (8 trials/day over 6 consecutive days), using a standard reversal procedure (McNamara, R. K. and Skelton, R. W., Brain Res. Brain Res. Rev. [1993] 18:33-49). While on the escape platform during the 60 second inter-trial interval, a significant number of DOM-treated rats presented with abnormal behaviour characterized by a combination of hunched body posture, facial clonus, mastication with tongue-protrusion, repetitive head extensions and bobbing, repetitive eye blinking/squinting, and vibrissae and ear twitching, often in combination with forelimb clonus. Presentation of all of the above behaviours was termed “novelty-induced seizure-like (NIS-L) syndrome”. Of note, the expression of this syndrome was not consequent to earlier drug-induced toxicity or seizures, nor was it spontaneous.
# The Morris Water Maze (MWM) consisted of a circular tank measuring 1.5 m in diameter. Water temperature was maintained at approximately 21° C. and was made opaque by a layer of polypropylene pellets floated on the surface. Four points around the edge of the pool were arbitrarily designated as north (N), south (S), east (E), and west (W), allowing the apparatus to be divided into 4 corresponding quadrants (NE, SE, NW, SW). A clear plexiglass escape platform was submerged approximately 2 cm below the water surface and placed, initially, in the NE quadrant of the maze (alternate locations for the reversal task were implemented on Day 3 and Day 5). Extra-maze cues consisted of laboratory furniture and lights (held constant throughout the experiment). A video camera was mounted above the center of the pool and all performance was recorded for subsequent analyses. […] Escape latencies and inter-trial behaviour was recorded by observers blind to experimental treatment.
structure (smiles),measurement,setting,value
"C/C(=C/C=C/[C@@H](C)C(=O)O)[C@H]1CN[C@H](C(=O)O)[C@H]1CC(=O)O [DOM, domoic acid]",animals displaying NIS-L in open field arena,[1]; 5 μg/kg PND 8-14,50%
same,animals displaying NIS-L in open field arena,[1]; 20 μg/kg PND 8-14,66.7%
same,weight gain between groups,[2],no significant differences in weight gain
same,signs of physical or behavioural toxicity prior to weaning,[2]; pups assessed until PND 22,None of the pups displayed any signs of physical or behavioural toxicity
same,animals exhibiting NIS-L syndrome in NWM,"[3]; female rats, 5 μg/kg PND 8-14",33.3%
same,animals exhibiting NIS-L syndrome in NWM,"[3]; female rats, 20 μg/kg PND 8-14",100%
same,animals displaying NIS-L syndrome during NWM testing,"[3]; female rats, 20 μg/kg PND 8-14",50%
same,animals exhibiting NIS-L syndrome in NWM,"[3]; male rats, 5 μg/kg PND 8-14",33.3%
same,animals exhibiting NIS-L syndrome in NWM,"[3]; male rats, 20 μg/kg PND 8-14",66.7%
same,animals displaying NIS-L syndrome during NWM testing,"[3]; male rats, 20 μg/kg PND 8-14",50%
"C=C(C)[C@H]1CN[C@H](C(=O)O)[C@H]1CC(=O)O [KA, kainic acid]",rats exhibiting NIS-L syndrome in open field arena,[1]; 25 μg/kg neonatally,62.5%
same,rats exhibiting NIS-L syndrome in open field arena,[1]; 100 μg/kg neonatally,33.3%
same,rats with NIS-L syndrome (study parallel in design to Example 1),"[4]; female rats, 25 μg/kg neonatally",16.7%
same,rats with NIS-L syndrome (study parallel in design to Example 1),"[4]; female rats, 100 μg/kg neonatally",57.1%
same,rats with NIS-L syndrome (study parallel in design to Example 1),"[4]; male rats, 25 μg/kg neonatally",62.5%
same,rats with NIS-L syndrome (study parallel in design to Example 1),"[4]; male rats, 100 μg/kg neonatally",62.5%
